The record followed here is patent US20260160767A1, “Biosynthetic Method for Preparing 10-Hydroxy-2-Decenoic Acid and Use Thereof in Skin Care” (SHANDONG FREDA BIOTECH CO., LTD., priority 2023, published 2026).

Structures are written as SMILES.

Holding throughout (assay type): cell-based
The subject of assay [1] is fibroblasts. Description: Mitochondrial function in UV-A irradiated fibroblasts (mitochondrial ROS, ATP, NADP+/NADPH and JC-1 kits). The settings on record: 10-HDA 0.25 mg/mL, UV-A 30 J/cm^2, 24 hours after irradiation, relative to irradiated control; for inhibition at 250 µg/mL: Fibroblast, light or radiation study. Here is the method:
Fibroblasts were seeded into a 6-well plate at a seeding density of 2.2×10^5 cells/well and incubated overnight in an incubator (37° C., 5% CO2). When the confluence reached 40%-60%, 2 mL of culture medium containing a corresponding concentration of a test substance was added to each well according to different groups. The BC group was a blank control group without any drug intervention and was cultured only in 2 mL normal medium. The NC group was a negative control group without any drug intervention and was cultured only in 2 mL normal medium. The PC group was a positive control group containing VE at a final concentration of 7 μg/mL. The sample group contained 10-HDA at a final concentration of 0.25 mg/mL. After drug incubation for 24 hours, according to test grouping, the NC group, PC group, and sample group were subjected to UV-A irradiation at a dose of 30 J/cm^2. After irradiation, the cells were further cultured for 24 hours in an incubator (37° C., 5% CO2). After incubation, mitochondrial functions were assessed according to instructions of a mitochondrial ROS detection kit, a mitochondrial ATP detection kit (Beyotime), a mitochondrial NADP^+/NADPH detection kit (WST-8 method), and a JC-1 mitochondrial membrane potential detection kit.

Assay [2] has as its system 3D epidermal model. Put plainly: Regulation of ceramides and fatty acids in a 3D epidermal model (stratum corneum lipid extraction, LC-MS). The settings on record: 10-HDA 0.0625 mg/mL; relative to untreated control system. Here is the method:
The model was transferred to a 6-well plate pre-filled with 3.7 mL/well model culture medium and incubated for 24 hours in a CO2 incubator (37° C., 5% CO2). The positive control (PC) group contained WY-14643 (pirinixic acid) at a final concentration of 50 μM. In the sample group, 10-HDA was at a final concentration of 0.0625 mg/mL. After incubation, each model was cut into two halves. One half was used for protein measurement, and the other half was used for lipid extraction and placed in a 6-well plate (the model was stored at −80° C.). For lipid extraction, 1 mL trypsin was added to each well of the 6-well plate and incubated for 30 minutes in an incubator. Water was added on the lid of the 6-well plate. The model and the nylon membrane were separated with tweezers, and viscous material on the stratum corneum was peeled off with tweezers. Water on the stratum corneum was blotted dry with paper, and the stratum corneum was placed into a glass tube. 1 mL chloroform:methanol mixture (chloroform:methanol=1:1) was added to each glass tube. The tube was ultrasonicated in an ice bath for 30 minutes. The supernatant was transferred to a vial and evaporated to dryness. To the dried vial, 160 μL acetonitrile: isopropanol mixture (acetonitrile:isopropanol=1:1) was added, and 20 μL ceramide C12 internal standard solution was added (the ceramide internal standard solution having a concentration of 100 μg/mL, with the internal standard solvent being a 1:1 mixture of acetonitrile and isopropanol). The mixture was ultrasonicated for 10 minutes and shaken for dissolution for 30 minutes, transferred to a sample centrifuge tube, centrifuged at 12,000 rpm for 10 minutes, and 100 μL of the upper layer was transferred into a 250 μL insert. LC-MS detection was performed using a Thermo Fisher Orbitrap Q Exactive™ quadrupole-Orbitrap high-resolution mass spectrometer.
Mass spectrometry conditions were as follows: mass spectrometry analysis was performed using a quadrupole-Orbitrap mass spectrometer equipped with a heated electrospray ionization source. Ion source voltages for positive and negative modes were 3.7 kV and 3.5 kV, respectively. Capillary heating temperature was 320° C. Sheath gas pressure was 30 psi, and auxiliary gas pressure was 10 psi. Heated vaporizer temperature was 300° C. Both sheath gas and auxiliary gas were nitrogen. Collision gas was nitrogen at a pressure of 1.5 mTorr. Full MS scan parameters were: resolution 70,000; automatic gain control target 1×10^6; […] 50 ms; and m/z scan range 50-1500. The LC-MS system was controlled by Xcalibur 2.2 SP1.48 software, and data acquisition was also controlled by the software.

The test system of assay [3] is fibroblasts. Put plainly: DNA damage products 8-OHdG (kit) and γ-H2AX (immunofluorescence) in UV-A irradiated fibroblasts. The note with it: Fibroblast, light or radiation study, 10-HDA 0.25 mg/mL, UV-A 30 J/cm^2, 24 hours after irradiation, relative to irradiated control without 10-HDA. How it is done: Fibroblasts were seeded into a 6-well plate at a seeding density of 2.2×10^5 cells/well and incubated overnight in an incubator (37° C., 5% CO2). When the confluence reached 40%-60%, 2 mL of culture medium containing a corresponding concentration of a test substance was added to each well according to different groups. The BC group was a blank control group without any drug intervention and was cultured only in 2 mL normal medium. The NC group was a negative control group without any drug intervention and was cultured only in 2 mL normal medium. The PC group was a positive control group containing VE at a final concentration of 7 μg/mL. The sample group contained 10-HDA at a final concentration of 0.25 mg/mL. After drug incubation for 24 hours, according to test groups, the NC group, PC group, and sample group were subjected to UV-A irradiation at a dose of 30 J/cm^2. After irradiation, the cells were further cultured for 24 hours in an incubator (37° C., 5% CO2). After incubation, cell culture supernatants were collected and tested according to the operation instructions of an 8-OHdG kit. […] Images were acquired under a fluorescence microscope and analyzed using Image-Pro® Plus image processing software.

The test system of assay [4] is fibroblasts. Description: Telomere length by qPCR (T/S ratio) in H2O2-stimulated fibroblasts. The note with it: positive control 1 mg/mL; cells from adult; H2O2 stimulation three days, 2 hours each; five passages. Here is the method:
Fibroblasts were seeded into a 6-well plate at a seeding density of 2.2×10^5 cells/well and incubated overnight in an incubator (37° C., 5% CO2). When the confluence reached 40%-60%, 2 mL of culture medium containing a corresponding concentration of a test substance was added to each well according to different groups. The BC group was a blank control group, wherein the cells were derived from back skin of children aged 7-8 years, and no drug intervention was performed during cultivation. The NC group was a negative control group, wherein the cells were derived from back skin of an adult. When the confluence reached 40%-60%, H2O2 stimulation was applied for three consecutive days, with each stimulation lasting 2 hours, and samples were collected for detection after continuous passaging for five passages. The PC group was a positive control group, wherein the cells were derived from back skin of an adult. When the confluence reached 40%-60%, H2O2 stimulation was applied for three consecutive days, with each stimulation lasting 2 hours. During the stimulation period, the cells were cultured in a medium containing cycloastragenol at a final concentration of 1 mg/mL. Samples were collected for detection after continuous passaging for five passages. […] Genomic DNA (gDNA) was obtained using a genomic DNA extraction kit, and telomere length was determined by qPCR using gDNA as a template.

Take `O=C(O)C=CCCCCCCCO` [10-HDA, 10-hydroxy-2-decenoic acid]: in assay [1], the NADPH content increase is recorded as 15.13% and the “mitochondrial ATP content increase” value came out at 56.23%. For the same compound, in assay [1] (read-out: early apoptosis rate inhibition rate), the inhibition (as a rule, the relative decrease from the control value, in per cent) at 250 µg/mL worked out at 12.7%. Moreover, in assay [1] (read-out: mitochondrial ROS inhibition rate), the inhibition at 250 µg/mL was found to be 70.7%. In addition, in assay [2], the “ceramide/protein (total ceramide normalized by sample protein amount) increase” value came out at 47.64%, the “fatty acid/protein (total fatty acid normalized by sample protein amount) increase” value amounted to 39.0%, the total ceramide increase turned out to be 35.37% and the “total fatty acid increase” value is 27.51%. For the same compound, the inhibition at 250 µg/mL in assay [3] (immunofluorescence, read-out: γ-H2AX inhibition rate) was found to be 47.2%. Also, the inhibition at 250 µg/mL in assay [3] (read-out: 8-OHdG inhibition rate) worked out at 45.1%.
As to `CC(C)(O)[C@@H]1CC[C@](C)([C@H]2[C@@H](O)C[C@@]3(C)[C@@H]4C[C@H](O)[C@H]5C(C)(C)[C@@H](O)CC[C@@]56C[C@@]46CC[C@]23C)O1` [cycloastragenol, reference compound], the “telomere length increase relative to the NC group” value in assay [4] came out at 43.1%.
